According to patent US20240108610A1, “RECTAL ADMINISTRATION OF ROFLUMILAST FOR THE TREATMENT OF CROHN'S DISEASE” (King Abdulaziz University, priority 2022, published 2024):

Key:
[1] = oral; cited from earlier work
[2] = tested on: DSS-induced ulcerative colitis; settings: 5 mg/kg, male Wistar rats, cited from earlier work
[3] = tested on: trinitrobenzenesulfonic acid (TNBS)-induced colitis; test: Colonic length and macroscopic appearance in TNBS-induced chronic colitis; format: in vivo, rat
Description: Chronic colitis was induced by weekly rectal injections of increasing doses of TNBS over 6 weeks (15, 30, 45, 60, 60, and 60 mg from day 0 to day 35), as previously described (4,12). Briefly, after food deprivation for 24 h, rats were anesthetized with an intraperitoneal injection of 1% isoflurane. TNBS was dissolved in ethanol (50%) and instilled into the colon using a cannula (0.25 mL), and then the rats were held upside down for 3 min to prevent escape of the intracolonic TNBS. Roflumilast was dissolved in dimethyl sulfoxide and diluted in 0.5% carboxymethyl cellulose sodium to a final concentration of 5.0 mg·kg^−1·day^−1 as previously described (13). Five groups of rats (n=8) were established: normal control (NC group), TNBS-treated (TNBS group, positive control), and three TNBS-treated groups that received oral sulfasalazine (SS group, 500 mg/kg) (14), oral roflumilast (by gastric gavage, OR group, 5 mg/kg), or rectal roflumilast (RR group, 5 mg/kg). Treatments were administered once daily in a volume of 200 μL for 15 days starting 48 h after the induction of colitis (from day 37) (15), and the control rats received equal amounts of vehicle. At the end of the treatment period, the rats were evaluated with the colitis activity score. To detect the effects of the treatments on systemic inflammatory processes, blood was collected for measurements of the proinflammatory mediators TNF-α, IL-2, and IL-6. At the end of the 15-day treatment period, the rats were sacrificed by cervical dislocation, and the colon was isolated, cleaned of feces, and measured for weight and length. Colonic myeloperoxidase (MPO) activity and glutathione (GSH) and malonaldehyde (MDA) levels were measured. The colon was examined macroscopically for gross changes and microscopically in sections stained with hematoxylin and eosin (H&E), Masson trichrome, and Periodic Acid Schiff (PAS) stains as well as KI-67 and TNF-α immunostaining. After the rats were sacrificed, their colon was excised, and its length was measured. The appearance of the colon regarding edema, ulceration, and necrosis was evaluated (17).

[4] = tested on: ovalbumin-induced asthmatic mice; settings: inhaled; cited from earlier work
[5] = tested on: dextran sulphate sodium (DSS)-induced colitis; settings: oral, 1 or 5 mg·kg−1·day−1, mice; cited from earlier work
[6] = tested on: TNBS-induced reduction in colon length; settings: 1 and 5 mg-kg−1·day−1; another study (13); cited from earlier work
[7] = oral; cited from earlier work; remark: listed apart in the source
GSH = test: Colonic GSH in colonic tissue homogenates, TNBS-induced colitis; format: in vivo, rat; settings: oral, once daily for 15 days; SS 500 mg/kg, OR 5 mg/kg; means±SE, n = 8
Description: Chronic colitis was induced by weekly rectal injections of increasing doses of TNBS over 6 weeks (15, 30, 45, 60, 60, and 60 mg from day 0 to day 35), as previously described (4,12). Briefly, after food deprivation for 24 h, rats were anesthetized with an intraperitoneal injection of 1% isoflurane. TNBS was dissolved in ethanol (50%) and instilled into the colon using a cannula (0.25 mL), and then the rats were held upside down for 3 min to prevent escape of the intracolonic TNBS. Roflumilast was dissolved in dimethyl sulfoxide and diluted in 0.5% carboxymethyl cellulose sodium to a final concentration of 5.0 mg·kg^−1·day^−1 as previously described (13). Five groups of rats (n=8) were established: normal control (NC group), TNBS-treated (TNBS group, positive control), and three TNBS-treated groups that received oral sulfasalazine (SS group, 500 mg/kg) (14), oral roflumilast (by gastric gavage, OR group, 5 mg/kg), or rectal roflumilast (RR group, 5 mg/kg). […] At the end of the treatment period, the rats were evaluated with the colitis activity score. […] At the end of the 15-day treatment period, the rats were sacrificed by cervical dislocation, and the colon was isolated, cleaned of feces, and measured for weight and length. Colonic myeloperoxidase (MPO) activity and glutathione (GSH) and malonaldehyde (MDA) levels were measured. […]

[8] = oral, once daily for 15 days, sulfasalazine 500 mg/kg, roflumilast 5 mg/kg

| SMILES | bioavailability [1] [%] | colon length ([2]; compared with the DSS group) | histological scores ([2]; compared with the DSS group) | severity of colitis ([2]; compared with the DSS group) | weight loss ([2]; compared with the DSS group) | colon concentrations of TNF-α and NO, MPO activity, and inducible nitric oxide synthase gene expression [2] | Colonic length [3, 8] | Colonic macroscopic appearance [3, 8] | Colonic macroscopic appearance ([3]; rectal, 5 mg/kg once daily for 15 days) | inflammation and histopathological changes [4] | numbers of neutrophils, eosinophils, and macrophages in the bronchoalveolar lavage fluid [4] | Colonic length [5] | colonic TNF-α production [5] | disease clinical score (weight loss, stool consistency, and hemorrhage) [5] | histological score [5] | TNBS-induced reduction in colon length [6] | elevated colonic concentration of TNF-α [6] | side effects [7] | colonic level of GSH (GSH) |
| --- | --- | --- | --- | --- | --- | --- | --- | --- | --- | --- | --- | --- | --- | --- | --- | --- | --- | --- | --- |
| O=C(Nc1c(Cl)cncc1Cl)c1ccc(OC(F)F)c(OCC2CC2)c1 [roflumilast] | ~80 | preserved | improved | diminished | decreased | decreased | more improvement than rectal roflumilast | moderate to marked improvement | mild improvement | substantially improved | decreased | dose-dependently improved | dose-dependently improved | dose-dependently improved | not improved | partially reverses | decreases | weight loss, headache, nausea, emesis, and diarrhea |  |
| O=C(O)c1cc(/N=N/c2ccc(S(=O)(=O)Nc3ccccn3)cc2)ccc1O [sulfasalazine] |  |  |  |  |  |  | greatest effect | marked improvement |  |  |  |  |  |  |  |  |  |  | 14.73 ± 0.49^h, i mmol/mg |
